pIC50: −log10 of the molar value.
How the values were obtained:
Assay type in all cases: biochemical
PDE4B1 = biological target: T1, PDE4B1 (Homo sapiens, UniProt Q07343); assay: PDE4 inhibitory activity assay (FAM-cAMP enzymatic reaction), PDE4B1; conditions: 20 nM
T1 construct: purchased BPS 60041
Protocol: (§1) The compounds of the present disclosure were tested for their inhibitory activity (IC50 value) against PDE4A1A, PDE4B1, and PDE4D2.
(§2) Positive compound: Trequinsin (Sigma, Cat No. T20S7).
(§3) Instrument: Wallac Victor Muti-lable counter (Pekin Elmer) Steps of assay:
(§4) PDE enzymatic reaction; • 1) PDE was dissolved in 1× reaction solution to prepare 2× enzyme solution; • 2) FAM-cAMP was dissolved in 1× reaction solution to prepare 2× substrate solution; • 3) Corresponding volume of the compound in DMSO was transferred to the reaction plate through Echo 550; • 4) 2× enzyme solution was added into the corresponding wells of the reaction plate and incubated with the compound solution for 15 minutes at room temperature; • 5) 2× substrate solution was added into the corresponding well of the reaction plate to initiate the reaction; • 6) After the reaction plate was incubated at room temperature for 30 min, the reaction was terminated by adding reaction stopping solution. The reaction plate was incubated at room temperature for another 60 minutes;
(§5) Inhibition rates were calculated with Excel; and IC50 for each compound was calculated with Graphpad prism.

PDE4D2 = PDE4D2 (Homo sapiens, UniProt Q08499); assay: PDE4 inhibitory activity assay (FAM-cAMP enzymatic reaction), PDE4D2; conditions: for pIC50: read-out: PDE4 D2 inhibitory activity (IC50 value)
Protocol: as §1, §2, §3, §4, §5

PDE4A1A = biological target: T2, PDE4A1A (Homo sapiens, UniProt P27815); assay: PDE4 inhibitory activity assay (FAM-cAMP enzymatic reaction), PDE4A1A
T2 construct: purchased BPS 60040
Protocol: as §1, §2, §3, §4, §5

[1] = compared with Apremilast and Example 11 of WO2018036470 (WX011)

Chain of PDE4D2 (Q08499 303-809): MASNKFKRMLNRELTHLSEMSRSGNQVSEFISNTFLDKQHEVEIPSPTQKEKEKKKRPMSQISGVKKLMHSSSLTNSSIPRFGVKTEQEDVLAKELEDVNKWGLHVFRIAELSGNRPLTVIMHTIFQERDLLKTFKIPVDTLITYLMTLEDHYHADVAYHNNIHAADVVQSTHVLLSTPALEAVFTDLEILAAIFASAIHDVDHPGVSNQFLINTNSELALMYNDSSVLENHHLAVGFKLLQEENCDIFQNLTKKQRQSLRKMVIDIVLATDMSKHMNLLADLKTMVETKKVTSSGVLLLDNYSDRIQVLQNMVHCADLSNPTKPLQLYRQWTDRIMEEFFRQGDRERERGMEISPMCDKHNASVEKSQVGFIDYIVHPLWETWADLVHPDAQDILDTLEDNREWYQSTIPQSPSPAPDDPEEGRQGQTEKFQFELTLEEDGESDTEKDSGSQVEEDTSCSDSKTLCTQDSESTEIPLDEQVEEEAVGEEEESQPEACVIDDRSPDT
T1 sequence (Q07343 whole entry): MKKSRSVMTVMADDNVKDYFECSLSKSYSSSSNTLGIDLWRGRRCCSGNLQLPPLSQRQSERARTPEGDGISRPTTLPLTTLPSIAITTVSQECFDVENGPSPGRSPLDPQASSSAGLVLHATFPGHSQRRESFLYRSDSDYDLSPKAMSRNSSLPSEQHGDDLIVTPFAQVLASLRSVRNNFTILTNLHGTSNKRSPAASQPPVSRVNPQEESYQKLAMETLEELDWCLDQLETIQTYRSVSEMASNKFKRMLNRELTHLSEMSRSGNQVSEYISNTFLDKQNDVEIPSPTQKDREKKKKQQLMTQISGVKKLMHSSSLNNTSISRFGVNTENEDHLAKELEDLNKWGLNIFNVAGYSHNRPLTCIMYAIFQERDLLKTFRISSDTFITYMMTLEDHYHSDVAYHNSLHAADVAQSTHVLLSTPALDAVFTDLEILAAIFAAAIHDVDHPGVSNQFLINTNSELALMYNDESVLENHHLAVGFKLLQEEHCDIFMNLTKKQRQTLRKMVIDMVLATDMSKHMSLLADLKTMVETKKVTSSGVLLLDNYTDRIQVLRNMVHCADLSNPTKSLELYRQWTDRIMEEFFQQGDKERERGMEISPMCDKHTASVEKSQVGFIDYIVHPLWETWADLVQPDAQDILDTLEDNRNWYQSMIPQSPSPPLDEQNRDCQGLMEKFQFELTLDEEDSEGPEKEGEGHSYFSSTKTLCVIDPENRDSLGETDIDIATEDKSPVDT
T2 sequence (P27815 1-647 isoform P27815-4): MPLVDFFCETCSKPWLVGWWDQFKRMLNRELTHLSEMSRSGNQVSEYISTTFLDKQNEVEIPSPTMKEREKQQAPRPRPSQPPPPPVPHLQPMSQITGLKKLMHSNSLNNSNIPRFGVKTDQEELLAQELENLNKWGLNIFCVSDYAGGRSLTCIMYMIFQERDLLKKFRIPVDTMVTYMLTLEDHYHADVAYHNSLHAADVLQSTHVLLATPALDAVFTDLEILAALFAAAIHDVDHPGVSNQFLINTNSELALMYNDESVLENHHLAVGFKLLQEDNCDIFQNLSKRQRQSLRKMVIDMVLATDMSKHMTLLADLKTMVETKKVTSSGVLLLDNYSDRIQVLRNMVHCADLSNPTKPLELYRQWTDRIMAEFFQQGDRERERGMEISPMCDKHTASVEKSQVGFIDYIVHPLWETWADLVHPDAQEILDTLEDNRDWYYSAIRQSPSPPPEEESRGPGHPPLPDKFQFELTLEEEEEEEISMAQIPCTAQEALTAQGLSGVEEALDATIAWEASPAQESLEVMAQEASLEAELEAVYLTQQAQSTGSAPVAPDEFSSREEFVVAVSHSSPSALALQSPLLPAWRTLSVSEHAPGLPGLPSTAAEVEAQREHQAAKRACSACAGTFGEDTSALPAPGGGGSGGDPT

Compound	PDE4 B1 inhibitory effect at 20 nM (PDE4B1)	PDE4 D2 inhibitory effect at 20 nM (PDE4D2)	PDE4 A1 inhibitory effect at 20 nM (PDE4A1A)	pIC50 (PDE4D2)	inhibitory activity against PDE4D2 compared with Apremilast and WX011 (PDE4D2; [1])	inhibitory activity against PDE4A1A compared with Apremilast and WX011 (PDE4A1A; [1])
CCOc1nc([C@@H](CS(C)(=O)=O)N2C(=O)c3csc(NC(=O)CN(C)C)c3C2=O)ccc1OC [Ex. 228, (S)-2-(dimethylamino)-N-(5-(1-(6-ethoxy-5-methoxypyridin-2-yl)-2-(methylsulfonyl)ethyl)-4,6-dioxo-5,6-dihydro-4H-thieno[3,4-c]pyrrol-1-yl)acetamide]	+	+	+			
CCOc1nc([C@@H](CS(C)(=O)=O)N2C(=O)c3csc(NC(=O)CN4CCCCC4)c3C2=O)ccc1OC [Ex. 230, (S)—N-(5-(1-(6-ethoxy-5-methoxypyridin-2-yl)-2-(methylsulfonyl)ethyl)-4,6-dioxo-5,6-dihydro-4H-thieno[3,4-c]pyrrol-1-yl)-2-(piperidin-1-yl)acetamide]	+	+	+			
CCOc1nc([C@H](CS(C)(=O)=O)N2Cc3cccc(NC(C)=O)c3C2=O)ccc1OC [Ex. 216, (R)—N-(2-(1-(6-ethoxy-5-methoxypyridin-2-yl)-2-(methylsulfonyl)ethyl)-3-oxoisoindolin-4-yl)acetamide]	+	+	+			
CCOc1nc([C@@H](CS(C)(=O)=O)n2c(=O)n(CC(F)(F)F)c3c(C)c(-c4ccccc4C)cnc32)ccc1OC [Ex. 55, (S)-3-(1-(6-ethoxy-5-methoxypyridin-2-yl)-2-(methylsulfonyl)ethyl)-7-methyl-6-(o-methylphenyl)-1-(2,2,2-trifluoroethyl)-1H-imidazo[4,5-b]pyridin-2(3H)-one]	+	+	+			
CCOc1nc([C@@H](CS(C)(=O)=O)n2c(=O)n(CC(F)F)c3c(C)c(-c4ccccc4)cnc32)ccc1OC [Ex. 57, (S)-1-(2,2-difluoroethyl)-3-(1-(6-ethoxy-5-methoxypyridin-2-yl)-2-(methylsulfonyl)ethyl)-7-methyl-6-phenyl-1H-imidazo[4,5-b]pyridin-2(3H)-one]	+	+	+			
CCOc1nc([C@H](CS(C)(=O)=O)n2c(=O)[nH]c3c(C)c(-c4ccccc4)cnc32)ccc1OC [Ex. 5, (R)-3-(1-(6-ethoxy-5-methoxypyridin-2-yl)-2-(methylsulfonyl)ethyl)-7-methyl-6-phenyl-1H-imidazo[4,5-b]pyridin-2(3H)-one]	−	−	−			
CCOc1nc([C@@H](CS(C)(=O)=O)n2c(=O)[nH]c3cc(-c4ccccc4C)cnc32)ccc1OC [Ex. 79, (S)-3-(1-(6-ethoxy-5-methoxypyridin-2-yl)-2-(methylsulfonyl)ethyl)-6-(o-methylphenyl)-1H-imidazo[4,5-b]pyridin-2(3H)-one]				8.33		
CCOc1nc([C@H](CS(C)(=O)=O)n2c(=O)[nH]c3c(C)c(-c4ccccc4OC)cnc32)ccc1OC [Ex. 13, (R)-3-(1-(6-ethoxy-5-methoxypyridin-2-yl)-2-(methylsulfonyl)ethyl)-6-(2-methoxyphenyl)-7-methyl-1H-imidazo[4,5-b]pyridin-2(3H)-one]				6.40		
CCOc1nc([C@H](CS(C)(=O)=O)n2c(=O)[nH]c3c(C)c(-c4ccccc4F)cnc32)ccc1OC [Ex. 3, (R)-3-(1-(6-ethoxy-5-methoxypyridin-2-yl)-2-(methylsulfonyl)ethyl)-6-(2-fluorophenyl)-7-methyl-1H-imidazo[4,5-b]pyridin-2(3H)-one]				6.38		
CCOc1nc([C@@H](CS(C)(=O)=O)n2c(=O)[nH]c3c(C)c(-c4ccc(F)cc4C)cnc32)ccc1OC [Ex. 35, (S)-6-(4-fluoro-2-methylphenyl)-3-(1-(6-ethoxy-5-methoxypyridin-2-yl)-2-(methylsulfonyl)ethyl)-7-methyl-1H-imidazo[4,5-b]pyridin-2(3H)-one]				8.47		
CCOc1nc([C@@H](CS(C)(=O)=O)n2c(=O)[nH]c3c(C)c(-c4ccccc4)cnc32)ccc1OC [Ex. 4, (S)-3-(1-(6-ethoxy-5-methoxypyridin-2-yl)-2-(methylsulfonyl)ethyl)-7-methyl-6-phenyl-1H-imidazo[4,5-b]pyridin-2(3H)-one]				8.07		
CCOc1nc([C@H](CS(C)(=O)=O)n2c(=O)[nH]c3c(C)c(-c4ccccc4C)cnc32)ccc1OC [Ex. 9, (R)-3-(1-(6-ethoxy-5-methoxypyridin-2-yl)-2-(methylsulfonyl)ethyl)-7-methyl-6-(o-methylphenyl)-1H-imidazo[4,5b]pyridin-2(3H)-one]				6.50		
CCOc1nc([C@@H](CS(C)(=O)=O)n2c(=O)[nH]c3c(C)c(-c4ccccc4F)cnc32)ccc1OC [Ex. 2, (S)-3-(1-(6-ethoxy-5-methoxypyridin-2-yl)-2-(methylsulfonyl)ethyl)-6-(2-fluorophenyl)-7-methyl-1H-imidazo[4,5-b]pyridin-2(3H)-one]				8.47	significantly enhanced inhibitory activity	significantly enhanced inhibitory activity
CCOc1nc([C@@H](CS(C)(=O)=O)n2c(=O)[nH]c3c(C)c(-c4ccc(C)cc4C)cnc32)ccc1OC [Ex. 31, (S)-6-(2,4-dimethylphenyl)-3-(1-(6-ethoxy-5-methoxypyridin-2-yl)-2-(methylsulfonyl)ethyl)-7-methyl-1H-imidazo[4,5-b]pyridin-2(3H)-one]				8.39		

Further lines, with some results ahead:

PDE4 B1 inhibitory effect at 20 nM (PDE4B1)	PDE4 D2 inhibitory effect at 20 nM (PDE4D2)	PDE4 A1 inhibitory effect at 20 nM (PDE4A1A)	pIC50 (PDE4D2)	Compound	inhibitory activity against PDE4D2 compared with Apremilast and WX011 (PDE4D2; [1])	inhibitory activity against PDE4A1A compared with Apremilast and WX011 (PDE4A1A; [1])
+	+	+		CCOc1nc([C@@H](CS(C)(=O)=O)n2c(=O)n(C)c3cc(-c4c(F)cccc4F)cnc32)ccc1OC [Ex. 89, (S)-6-(2,6-difluorophenyl)-3-(1-(6-ethoxy-5-methoxypyridin-2-yl)-2-(methylsulfonyl)ethyl)-1-methyl-1H-imidazo[4,5-b]pyridin-2(3H)-one]		
+	+	+		CCOc1nc([C@@H](CS(C)(=O)=O)n2c(=O)n(C)c3cc(-c4cccc(F)c4C)cnc32)ccc1OC [Ex. 112, (S)-6-(3-fluoro-2-methylphenyl)-3-(1-(6-ethoxy-5-methoxypyridin-2-yl)-2-(methylsulfonyl)ethyl)-1-methyl-1H-imidazo[4,5-b]pyridin-2(3H)-one]		
+	+	+		CCOc1nc([C@@H](CS(C)(=O)=O)n2c(=O)n(C)c3cc(-c4cc(F)c(F)cc4F)cnc32)ccc1OC [Ex. 97, (S)-6-(2,4,5-trifluorophenyl)-3-(1-(6-ethoxy-5-methoxypyridin-2-yl)-2-(methylsulfonyl)ethyl)-1-methyl-1H-imidazo[4,5-b]pyridin-2(3H)-one]		
+	+	+		CCOc1nc([C@@H](CS(C)(=O)=O)n2c(=O)[nH]c3cc(-c4cccc(F)c4F)cnc32)ccc1OC [Ex. 90, (S)-6-(2,3-difluorophenyl)-3-(1-(6-ethoxy-5-methoxypyridin-2-yl)-2-(methylsulfonyl)ethyl)-1H-imidazo[4,5-b]pyridin-2(3H)-one]		
+	+	+		CCOc1nc([C@@H](CS(C)(=O)=O)n2c(=O)n(C)c3cc(-c4cc(C)ccc4C)cnc32)ccc1OC [Ex. 102, (S)-6-(2,5-dimethylphenyl)-3-(1-(6-ethoxy-5-methoxypyridin-2-yl)-2-(methylsulfonyl)ethyl)-1-methyl-1H-imidazo[4,5-b]pyridin-2(3H)-one]		
+	+	+		CCOc1nc([C@@H](CS(C)(=O)=O)n2c(=O)[nH]c3cc(-c4cccc(F)c4F)ccc32)ccc1OC [Ex. 152, (S)-5-(2,3-difluorophenyl)-1-(1-(6-ethoxy-5-methoxypyridin-2-yl)-2-(methylsulfonyl)ethyl)-1H-benzo[d]imidazol-2(3H)-one]		
+	+	+		CCOc1nc([C@@H](CS(C)(=O)=O)n2c(=O)n(C)c3cc(-c4cc(F)ccc4C)cnc32)ccc1OC [Ex. 110, (S)-6-(5-fluoro-2-methylphenyl)-3-(1-(6-ethoxy-5-methoxypyridin-2-yl)-2-(methylsulfonyl)ethyl)-1-methyl-1H-imidazo[4,5-b]pyridin-2(3H)-one]		
			8.43	CCOc1nc([C@@H](CS(C)(=O)=O)n2c(=O)[nH]c3c(C)c(-c4cc(F)ccc4F)cnc32)ccc1OC [Ex. 27, (S)-6-(2,5-difluorophenyl)-3-(1-(6-ethoxy-5-methoxypyridin-2-yl)-2-(methylsulfonyl)ethyl)-7-methyl-1H-imidazo[4,5-b]pyridin-2(3H)-one]		
			8.17	CCOc1nc([C@@H](CS(C)(=O)=O)n2c(=O)n(C)c3cc(-c4ccccc4C)cnc32)ccc1OC [Ex. 80, (S)-3-(1-(6-ethoxy-5-methoxypyridin-2-yl)-2-(methylsulfonyl)ethyl)-1-methyl-6-(o-methylphenyl)-1H-imidazo[4,5-b]pyridin-2(3H)-one]		

Reference: patent US20230141101A1, “PDE4 INHIBITOR COMPOUND AND MEDICAL USE THEREOF” (Suzhou Longbotai Pharmaceuticals Co., Ltd., priority 2020, published 2023)
